Entries after “also recorded” stand apart in the source; their conditions may differ.
Columns and labels:
[1] = system: RG2 glioma cells; experiment: Autophagic flux assay (LC3-II western blot in the presence of bafilomycin-A1); assay type: cell-based, rat; settings: RG2 glioma cells, 4 h, 50 nM bafilomycin-A1, western blot
Procedure: In the assay, cells are treated with subtoxic concentrations of bafilomycin-A, which blocks lysosomal acidification. This prevents autophagosome fusion with lysosomes at a specific point. For example, RG2 glioma cells (or other cell types) are “clamped” by addition of 10-50 nM bafilomycin-A1 to block autophagosome fusion with lysosomes and eliminate autophagy clearance. Then, autophagy flux is measured by the conjugation of phosphatidylethanolamine to LC3-I, yielding an electrophoretically separable LC3-II by western blot. LC3-II acts as a link between nascent autophagosomes and cargo being directed into these structures. An autophagy enhancer will increase LC3-II in the presence of bafilomycin, whereas a compound that inhibits autophagy completion will not do so. Thus, the L3A-I to LC3A-II conversion in the presence of bafilomycin-A1 constitutes a valid measure of autophagy.
For the assays, rat glioma cells RG2 (ATCC® CRL-2433™; RG2 cells) were cultured. […] The cells were then incubated for an additional 4 h. At termination, the cell culture medium was removed, cells were washed with PBS and lysed on ice in Pierce RIPA buffer containing protease and phosphatase inhibitors.
Western Blotting: The proteins were electrophoresed and wet-blotted to polyvinylidine difluoride membranes, blocked overnight in 4% bovine serum albumin, and developed using antibodies obtained from Cell Signaling Technology (L3A: cat #. 4599; ULK1: cat #. 8054, ULK1(p757): cat #. 6880).
RG2 glioma cells were treated without drug (first column in FIG. 8A) or 4 h with 50 nM bafilomycin-A1 (BAF), the indicated concentration of LK, or the phosphonate analog 2-isopropyl-LK-3-phosphonate. The western blot results are shown in FIG. 8A, where the lower band corresponds to LC3-II. An increase in the intensity of this band in the presence of bafilomycin-A1 indicates increased autophagic flux. […] Similar results are shown in FIG. 9 with respect to the LK-P compound 2-butyl-lanthionine-phosphonate (also referred to as 2-n-butyl-lanthionine-phosphonate or 2-n-butyl-LK-P).
RG2 glioma cells (American Tissue Type Collection, ATTC, Rockville MD USA) were treated for 4 h with 50 nM bafilomycin-A1 (previously dissolved to 1000× final concentration in dimethylsulfoxide). Thirty minutes after addition of bafilomycin, cells were treated with test agents at 100× final concentration. Cells were lysed in RIPA buffer containing protease and phosphatase inhibitors. Protein concentration was assayed and normalized to constant values (typically 5-7 mg/mL). Proteins were electrophoresed across 4-20% polyacrylamide gels and wet blotted onto polyvinylidine difluoride (PVDF) membranes. Proteins were blotted with commercially available antibodies against LC3.

[2] = Stability of the isolated solid to high vacuum; assay type: physicochemical; settings: isolated white solid, at least overnight
[3] = system: HeLa cells; experiment: Rescue of HeLa cells from TNFa toxicity, tetrazolium reduction assay; assay type: cell-based; settings: 20 h 10 ng/mL TNFa, 10 micromolar cycloheximide
Procedure: HeLa cells were treated 20 h with 10 ng/mL recombinant human TNFa in the presence of 10 micromolar cycloheximide and viability measured by tetrazolium reduction assay.

[4] = system: ULK1 system in RG2 cells; experiment: ULK1/ULK1(p757) quantitative autophagy stimulation assay; assay type: cell-based, rat; settings: 24 h in RG2 cells; read-out: EC50 on the ULK1 system (ULK1 increase and ULK1(p757) decrease)
Source text: For validation purposes, a second, quantitative autophagy stimulation assay was utilized.

[5] = system: SOD1^G93A mouse; settings: cited from earlier work
[6] = system: 3×Tg-AD mouse; settings: cited from earlier work
[7] = system: pMCAO; settings: after pMCAO; cited from earlier work
[8] = system: C6 glioma tumor; settings: C6 glioma xenograft into rat cortices; cited from earlier work
[9] = measurement of brain LKE levels and animal studies; cited from earlier work
[10] = system: people with ALS; settings: cited from earlier work

CCCCC1=C(P(=O)(O)O)N[C@H](C(=O)O)CS1
autophagic flux / autophagy stimulation (LC3-II band in the presence of bafilomycin-A1) [1]: comparable activity; also recorded: stimulate autophagy to varying degrees; also recorded: greater autophagy activation effect than LKE | autophagic flux / autophagy stimulation (LC3-II band in the presence of bafilomycin-A1) ([1]; listed as 2-butyl-LK-P): more effective at inducing autophagic flux than, inter alia, LK-E | stability to high vacuum pressures [2]: stable to high vacuum pressures at least overnight without visual or spectral decomposition

CC(C)C1=C(P(=O)(O)O)NCCS1 [2-isopropyl-AECK-P]
autophagic flux / autophagy stimulation (LC3-II band in the presence of bafilomycin-A1) [1]: greater autophagy activation effect than LKE | autophagic flux / autophagy stimulation (LC3-II band in the presence of bafilomycin-A1) ([1]; listed as 2-isopropyl AECK-P): comparable activity

CC(C)C1=C(P(=O)(O)O)N[C@H](C(=O)O)CS1 [2-isopropyl-LK-P, 2-isopropyl lanthionine ketimine phosphonate]
autophagic flux / autophagy stimulation (LC3-II band in the presence of bafilomycin-A1) [1]: stimulates autophagy in RG2 cells at low micromolar concentrations; also recorded: much more potent stimulator of autophagy than LK; also recorded: comparable activity; also recorded: stimulate autophagy to varying degrees; also recorded: increase autophagic flux | autophagic flux / autophagy stimulation (LC3-II band in the presence of bafilomycin-A1) ([1]; listed as 2-isopropyl lanthionine-ketimine-phosphonate): clearly was more potent at 10 mM than was LK | autophagic flux / autophagy stimulation (LC3-II band in the presence of bafilomycin-A1) ([1]; listed as 2-isopropyl-lanthionine-ketimine-3-phosphonate): clearly more potent at 10 μM than LK was | cell death stemming from TNFa treatment [3]: reduced cell death | EC50 ([3]; Homo sapiens, HeLa, compound 1 h before, read-out: EC50% for reduction of cell death from TNFa): ~10 mM | stability to high vacuum pressures [2]: stable to high vacuum pressures at least overnight without visual or spectral decomposition

CCOC(=O)[C@@H]1CSC(CC)=C(C(=O)O)N1 [Compound 2-ethyl-LKE]
autophagic flux / autophagy stimulation (LC3-II band in the presence of bafilomycin-A1) [1]: stimulate autophagy in RG2 cells

O=C(O)C1=CSC[C@@H](C(=O)O)N1 [LK, (5R)-3,5,-dicarboxy-1-thia-4-aza-2-cyclohexene, reference compound]
autophagic flux / autophagy stimulation (LC3-II band in the presence of bafilomycin-A1) [1]: increase autophagic flux

CCOC(=O)C1=CSCC(C(=O)O)N1 (stereo not shown) [LKE, lanthionine ketenamine ethyl ester]
autophagic flux / autophagy stimulation (LC3-II band in the presence of bafilomycin-A1) [1]: stimulate autophagy to varying degrees | EC50 [4]: ~50 nM | lifespan and motor function [5]: increases lifespan and slows decline of motor function | amyloid burden, phospho-tau, microglial activation, cognitive decline [6]: decreases amyloid burden inside neurons and in plaques, decreases phospho-tau accumulation, decreases microglial activation, and slows cognitive decline | infarct volume and functional recovery [7]: decreases infarct volume and improves functional recovery | tumor growth [8]: slows growth of C6 glioma tumor | βββ (blood brain barrier) penetrability [9]: good βββ penetrability

Nc1nc2ccc(OC(F)(F)F)cc2s1 [Riluzole]
prolongation of life ([10]; ALS patients): 2-3 months

CC1=NN(c2ccccc2)C(=O)C1 [edaravone]
clinical decline in daily functioning ([10]; people with ALS): slows the clinical decline in daily functioning
